Calls of active or inactive are those of the source. The rule behind the calls is not given here.
Tests used:
Monkeypox virus [1] = test: Antiviral activity against Monkeypox virus V81-I-179 infected in african green monkey BSC-40 cells at 0.005 uM by IHC staining-based comet tail reduction assay; type: functional, organism-based
Variola virus [2] = test: Antiviral activity against Variola virus SUD47-juba infected in african green monkey BSC-40 cells at 0.015 uM by IHC staining-based comet tail reduction assay; type: functional, organism-based
Variola virus [3] = test: Antiviral activity against Variola virus SUD47-juba infected in african green monkey BSC-40 cells at 0.05 to 0.5 uM by IHC staining-based plaque reduction assay; type: functional, organism-based
Variola virus [4] = test: Antiviral activity against Variola virus infected in african green monkey vero cells assessed as reduction in virus-induced cytopathic effect; type: functional, organism-based
Monkeypox virus [5] = test: Antiviral activity against Monkeypox virus V1979-I-005 infected in african green monkey BSC-40 cells at 0.015 uM by IHC staining-based comet tail reduction assay; type: functional, organism-based
Monkeypox virus [6] = test: Antiviral activity against Monkeypox virus V78-I-3945 infected in african green monkey BSC-40 cells at 0.015 uM by IHC staining-based comet tail reduction assay; type: functional, organism-based
Monkeypox virus [7] = test: Antiviral activity against Monkeypox virus 2003-USA-039 infected in african green monkey BSC-40 cells at 0.05 to 0.5 uM by IHC staining-based plaque reduction assay; type: functional, organism-based
Camelpox virus = test: Antiviral activity against Camelpox virus infected in african green monkey Vero cells assessed as reduction in virus-induced cytopathic effect; type: functional, organism-based
Monkeypox virus [8] = test: Antiviral activity against Monkeypox virus V77-I-823 infected in african green monkey BSC-40 cells at 0.05 to 0.5 uM by IHC staining-based plaque reduction assay; type: functional, organism-based
Variola virus [9] = test: Antiviral activity against Variola virus NEP73-175 infected in african green monkey BSC-40 cells at 0.05 to 0.5 uM by IHC staining-based plaque reduction assay; type: functional, organism-based
Monkeypox virus [10] = test: Antiviral activity against Monkeypox virus 2003-USA-039 infected in african green monkey BSC-40 cells assessed as reduction in virus-induced cytopathic effect at 0.05 to 5 uM; type: functional, organism-based
Variola virus [11] = test: microbe, parasite or virus in culture; settings: BRZ66-39, BSC-40
Variola virus [12] = test: Antiviral activity against Variola virus SOM77-ali infected in african green monkey BSC-40 cells at 0.005 uM assessed as reduction in virus-induced cytopathic effect; type: functional, organism-based
Variola virus [13] = test: Antiviral activity against Variola virus BSH74-sol infected in african green monkey BSC-40 cells assessed as reduction in viral plaque formation at 0.015 uM uM by IHC staining-based plaque reduction assay; type: functional
Monkeypox virus [14] = test: Antiviral activity against Monkeypox virus V77-I-823 infected in african green monkey BSC-40 cells at 0.005 uM uM by IHC staining-based plaque reduction assay; type: functional, organism-based
Variola virus [15] = test: Antiviral activity against Variola virus NEP73-175 infected in african green monkey BSC-40 cells assessed as reduction in viral plaque formation at 0.015 uM uM by IHC staining-based plaque reduction assay; type: functional
Monkeypox virus [16] = test: Antiviral activity against Monkeypox virus 2003-USA-039 infected in african green monkey BSC-40 cells assessed as reduction in virus-induced cytopathic effect at 0.005 uM; type: functional, organism-based
Variola virus [17] = test: Antiviral activity against Variola virus BRZ66-39 infected in african green monkey BSC-40 cells at 0.015 uM assessed as reduction in virus-induced cytopathic effect; type: functional, organism-based
Variola virus [18] = test: Antiviral activity against Variola virus NEP73-175 infected in african green monkey BSC-40 cells at 0.015 uM assessed as reduction in virus-induced cytopathic effect; type: functional, organism-based
Monkeypox virus [19] = test: Antiviral activity against Monkeypox virus V1979-I-005 infected in african green monkey BSC-40 cells at 0.005 uM by IHC staining-based comet tail reduction assay; type: functional, organism-based
Monkeypox virus [20] = test: Antiviral activity against Monkeypox virus V81-I-179 infected in african green monkey BSC-40 cells assessed as reduction in virus-induced cytopathic effect at 0.05 to 5 uM; type: functional, organism-based
Monkeypox virus [21] = test: Antiviral activity against Monkeypox virus V78-I-3945 infected in african green monkey BSC-40 cells at 0.05 to 0.5 uM by IHC staining-based plaque reduction assay; type: functional, organism-based
Variola virus [22] = test: microbe, parasite or virus in culture; settings: SLN68-258, BSC-40
Variola virus [23] = test: Antiviral activity against Variola virus SLN68-258 infected in african green monkey BSC-40 cells at 0.05 to 5 uM assessed as reduction in virus-induced cytopathic effect; type: functional, organism-based
Variola virus [24] = test: Antiviral activity against Variola virus SLN68-258 infected in african green monkey BSC-40 cells at 0.015 uM assessed as reduction in virus-induced cytopathic effect; type: functional, organism-based
Monkeypox virus [25] = test: Antiviral activity against Monkeypox virus V1979-I-005 infected in african green monkey BSC-40 cells assessed as reduction in viral plaque formation at 0.015 uM uM by IHC staining-based plaque reduction assay; type: functional
Variola virus [26] = test: Antiviral activity against Variola virus SOM77-ali infected in african green monkey BSC-40 cells at 0.015 uM by IHC staining-based comet tail reduction assay; type: functional, organism-based
Variola virus [27] = test: Antiviral activity against Variola virus SLN68-258 infected in african green monkey BSC-40 cells at 0.005 uM by IHC staining-based comet tail reduction assay; type: functional, organism-based
Variola virus [28] = test: Antiviral activity against Variola virus SOM77-ali infected in african green monkey BSC-40 cells at 0.05 to 0.5 uM by IHC staining-based comet tail reduction assay; type: functional, organism-based
Variola virus [29] = test: Antiviral activity against Variola virus BSH74-sol infected in african green monkey BSC-40 cells at 0.005 uM by IHC staining-based comet tail reduction assay; type: functional, organism-based
Variola virus [30] = test: Antiviral activity against Variola virus SLN68-258 infected in african green monkey BSC-40 cells at 0.015 uM by IHC staining-based comet tail reduction assay; type: functional, organism-based
Monkeypox virus [31] = test: Antiviral activity against Monkeypox virus V81-I-179 infected in african green monkey BSC-40 cells at 0.015 uM by IHC staining-based comet tail reduction assay; type: functional, organism-based
Variola virus [32] = test: Antiviral activity against Variola virus NEP73-175 infected in african green monkey BSC-40 cells at 0.005 uM uM by IHC staining-based plaque reduction assay; type: functional, organism-based
Variola virus [33] = test: microbe, parasite or virus in culture; settings: SUD47-juba, BSC-40
Variola virus [34] = test: Antiviral activity against Variola virus SUD47-juba infected in african green monkey BSC-40 cells at 0.05 to 0.5 uM by IHC staining-based comet tail reduction assay; type: functional, organism-based
Monkeypox virus [35] = test: Antiviral activity against Monkeypox virus 2003-USA-039 infected in african green monkey BSC-40 cells assessed as reduction in virus-induced cytopathic effect at 0.015 uM; type: functional, organism-based
Variola virus [36] = test: Antiviral activity against Variola virus BSH74-sol infected in african green monkey BSC-40 cells at 0.015 uM assessed as reduction in virus-induced cytopathic effect; type: functional, organism-based
Monkeypox virus [37] = test: Antiviral activity against Monkeypox virus V77-I-823 infected in african green monkey BSC-40 cells at 0.005 uM by IHC staining-based comet tail reduction assay; type: functional, organism-based

## O=C(NN1C(=O)[C@@H]2[C@@H]3C=C[C@@H]([C@H]4C[C@@H]34)[C@@H]2C1=O)c1ccc(C(F)(F)F)cc1 [TECOVIRIMAT]
Monkeypox virus [1]
  Activity: inactive
Variola virus [2]
  Activity: Active
Variola virus [3]
  Activity: Active
Variola virus [4]
  Activity: Active
Monkeypox virus [5]
  Activity: Active
Monkeypox virus [6]
  Activity: Active
Monkeypox virus [7]
  Activity: Active
Camelpox virus
  Activity: Active
Monkeypox virus [8]
  Activity: Active
Variola virus [9]
  Activity: Active
Monkeypox virus [10]
  Activity: Active
Variola virus [11]
  EC50: 67 nM
Variola virus [12]
  Activity: inactive
Variola virus [13]
  inhibition (INH): 50%
Monkeypox virus [14]
  Activity: inactive
Variola virus [15]
  inhibition (INH): 50%
Monkeypox virus [16]
  Activity: inactive
Variola virus [17]
  Activity: Active
Variola virus [18]
  Activity: Active
Monkeypox virus [19]
  Activity: inactive
Monkeypox virus [20]
  Activity: Active
Monkeypox virus [21]
  Activity: Active
Variola virus [22]
  EC50: 37 nM
Variola virus [23]
  Activity: Active
Variola virus [24]
  Activity: Active
Monkeypox virus [25]
  inhibition (INH): 50%
Variola virus [26]
  Activity: Active
Variola virus [27]
  Activity: inactive
Variola virus [28]
  Activity: Active
Variola virus [29]
  Activity: inactive
Variola virus [30]
  Activity: Active
Monkeypox virus [31]
  Activity: Active
Variola virus [32]
  Activity: inactive
Variola virus [33]
  EC50: 19 nM
Variola virus [34]
  Activity: Active
Monkeypox virus [35]
  Activity: Active
Variola virus [36]
  Activity: Active
Monkeypox virus [37]
  Activity: inactive

— ChEMBL document CHEMBL1629642, “In vitro efficacy of ST246 against smallpox and monkeypox” (Antimicrob Agents Chemother, 2009)
